{"source": "patent US20100048594A1", "about": "“USE OF CYTOHESIN INHIBITORS FOR CHEMICALLY INDUCING LONGEVITY” (RHEINISCHE FRIEDRICH-WILHELMS UNIVERSITAT, priority 2006, published 2010)", "key": {"FoxO1A": {"test_system": "FoxO1A", "experiment": "Insulin-dependent phosphorylation of FoxO1A in HepG2 cells", "assay_type": "cell-based, human", "conditions": "HepG2 cells, 5, 10, 15 μM compound, 100 nM insulin; based upon concentration"}, "[1]": {"test_system": "genes that are controlled via the PI3K-dependent pathway of the insulin receptor signaling pathway", "experiment": "Expression of insulin-regulated gluconeogenic and glycolytic genes in mouse liver after feeding (quantitative PCR)", "assay_type": "in vivo, C57BL/6 mice", "conditions": "food with 0.9 μmol/g compound for 3 days, 40 μg insulin i.p.", "excerpt": "C57BL/6 mice (Charles River Laboratories) that had been kept in a pathogen-free animal facility, maintaining a 12-hour light/dark cycle, were used. The animals received standard mouse food (19% protein, 3.3% fat, 41.3% carbohydrates; ssniff Spezialdiäten GmbH) ad libitum. Male animals between the ages of 8 and 12 weeks were used.\nA group of 6 C57BL/6 mice received standard mouse food mixed with 0.9 μmol/g of the compound according to formula (9) for a period of 3 days, while a control group of 6 animals received standard mouse food. The animals were then injected intraperitoneally with 100 μl normal saline solution (control group) or saline solution with 40 μg recombinant human insulin (Sigma). […]\nTotal RNA from 15 mg mouse liver in each case was isolated using the Absolutely RNA Kit (Stratagene) and the cDNA was produced via the reverse transcription of 2 μg RNA using the High Capacity cDNA Archive Kit (Applied Biosystems), according to the manufacturer's instructions. Quantitative PCR was performed in 10 μl batches in an iQ5-Cycler (BioRad) by means of the TaqMan Gene Expression Assay (Applied Biosystems) using primers (Applied Biosystems), against lgfbp1, Fbp2, Pck1, Pck2, G6 pc, Hk2, Pklr, Gck, Gckr, according to the manufacturer's instructions. […]"}}}
{"molecule": "COc1nc(-c2ccc3c(c2)OCO3)n(-c2ccc(NC(=O)CSc3ccccc3)cc2)n1", "note": "[Compound (9)]", "values": [{"measurement": "insulin-dependent phosphorylation of FoxO1A", "setting": "FoxO1A", "value": "inhibited"}, {"measurement": "expression of the glycolytic gene induced by insulin", "setting": "[1]", "value": "decreased to a statistically significant degree"}, {"measurement": "expression of the studied gluconeogenic gene, suppressed by insulin", "setting": "[1]", "value": "increased"}]}
